Data set [1] relates to isolated rat hearts. Conditions: cited from earlier work; for preischemic increase in coronary perfusion pressure induced by big ET-1 and its preischemic effect: phosphoramidon (IC50 =100 μM), BQ-123 0.3 μM; for time to contracture in globally ischemic rat hearts: 30 pMol ET-1 or 10 nMol big ET-1 pretreatment; for pIC50: isolated rat hearts, read-out: IC50, reduction of coronary flow.

Data set [2] deals with ETA. Conditions: endotoxic shock, mouse; cited from earlier work.
In data set [3] the test system is ET receptor. Conditions: allergic sheep; cited from earlier work.
In data set [4] the test system is SHR. Conditions: IV infusion; cited from earlier work.
The target of data set [5] is T1, human ECE-1 (Homo sapiens, UniProt P42892).
T1 construct: expressed in transfected cells
T1 sequence (P42892 1-770): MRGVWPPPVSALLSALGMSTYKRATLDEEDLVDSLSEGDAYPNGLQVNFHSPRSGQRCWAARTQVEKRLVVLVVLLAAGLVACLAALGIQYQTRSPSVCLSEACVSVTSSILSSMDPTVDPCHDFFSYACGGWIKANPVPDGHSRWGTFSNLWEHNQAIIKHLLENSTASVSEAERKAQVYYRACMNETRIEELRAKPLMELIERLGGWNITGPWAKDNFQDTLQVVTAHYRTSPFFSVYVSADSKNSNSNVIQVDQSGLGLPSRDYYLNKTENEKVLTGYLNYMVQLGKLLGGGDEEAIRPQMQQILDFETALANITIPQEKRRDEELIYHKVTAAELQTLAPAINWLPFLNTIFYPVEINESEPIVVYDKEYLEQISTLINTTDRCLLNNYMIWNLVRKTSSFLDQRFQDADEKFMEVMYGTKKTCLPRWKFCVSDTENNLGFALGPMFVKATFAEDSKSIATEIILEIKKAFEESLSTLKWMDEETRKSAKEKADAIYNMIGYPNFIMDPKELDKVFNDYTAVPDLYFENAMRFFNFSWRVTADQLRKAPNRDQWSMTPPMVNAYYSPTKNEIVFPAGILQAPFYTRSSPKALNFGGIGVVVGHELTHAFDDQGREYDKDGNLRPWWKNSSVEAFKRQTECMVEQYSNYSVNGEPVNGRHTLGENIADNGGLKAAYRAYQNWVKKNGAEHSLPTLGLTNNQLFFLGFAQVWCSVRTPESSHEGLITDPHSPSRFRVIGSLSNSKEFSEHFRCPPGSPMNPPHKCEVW
The data set can be described thus: ECE-1 Assay (ET-1 formed from big ET-1, by Elisa). The data set is classed as biochemical. Conditions: solubilized membrane fraction of CHO/human ECE-1 cells, 0.1 μM big ET-1, pH 7.0, 1 hour at 37° C. As for the experimental part: All cells were grown in a humidified incubator at 37° C. in an atmosphere of 5% CO2/95% air. The membrane fractions from CHO cells were prepared as described in (Cell 1994; (78):473-485). ECE-1 Assay […] The final concentration of DMSO was 1.5%. […] This final mixture was then directly analyzed for the amount of ET-1 by enzyme-linked immunosorbant assay (Elisa).

In data set [6] the test system is endothelin. Conditions: rats; cited from earlier work.
Data set [7] has as its system effects of intracisternal big ET-1. Conditions: anesthetized dogs; cited from earlier work.
Data set [8] has as its system ECE. Conditions: ECE in vitro, cited from earlier work.
In data set [9] the test system is pressor response of big ET-1. Conditions: ganglion-blocked anesthetized rats; cited from earlier work.
Data set [10] concerns infarct size. Conditions: IV, 24 hour postischemia; cited from earlier work.
Data set [11] concerns effects of big ET-1 in the microvasculature. Conditions: anesthetized hamsters; cited from earlier work.
The test system of data set [12] is lethality induced by big ET-1. Conditions: in vivo; cited from earlier work.
For data set [13], the system named is pressor response of big ET. Conditions: cited from earlier work.
Data set [14] concerns hemodynamic actions of big ET-1. Conditions: rat brain; cited from earlier work.
The subject of data set [15] is vasoconstrictor effects evoked by big ET-1. Conditions: anaesthetized pigs; cited from earlier work.
For data set [16], the system named is pulmonary vascular resistance. Conditions: young piglets; cited from earlier work.
Data set [17] concerns vascular strips. Conditions: cited from earlier work.
For data set [18] the following is noted: in vivo; cited from earlier work.
For data set [19], the system named is gastric mucosa. Conditions: 50 to 500 pmol/kg into the left gastric artery; cited from earlier work.

pIC50: −log10 of the molar value. Like-named read-outs stand apart in the source and are kept apart here. Non-standard residues stand in square brackets, D forms with d. Residues, ends and D or L forms follow the SMILES beside them. No end group written: not given here.

We go through 12 compounds from patent US5891892A, “Small molecule biaryl compounds as inhibitors of endothelin converting enzyme” (Warner-Lambert Company, priority 1997, dated 1999).

For the compound `CC(C)C[C@@H]1NC(=O)[C@@H](C(C)C)NC(=O)[C@@H]2CCCN2C(=O)[C@@H](CC(=O)O)NC(=O)[C@@H](Cc2c[nH]c3ccccc23)NC1=O` [BQ-123] (cyclo(L[dW][dD]P[dV])), in data set [1], the “preischemic increase in coronary perfusion pressure induced by big ET-1 and its preischemic effect” value is listed as “abolished the preischemic increase in coronary perfusion pressure induced by big ET-1 as well as its preischemic effect”. Also, the survival rate entry in data set [2] is “significantly increased the survival rate in this model”. Besides, the “ET-1-induced bronchoconstriction and tracheal smooth muscle contraction” value in [3] was “block ET-1-induced bronchoconstriction and tracheal smooth muscle contraction in allergic sheep”.
As for `O=P(O)(O)CNC(Cc1ccc(-c2ccccc2)cc1)c1nn[nH]n1` (stereo not drawn) [CGS 26303], in data set [4], the “antihypertensive responses in the SHR” value is reported as “effective at lowering the antihypertensive responses in the SHR”.
As to `COc1cc(C(=O)O)nc(-c2csc(CCCCCC(C)O)n2)c1OC` (stereo not drawn) [Example 1, 6-[2-(6-Hydroxy-heptyl)-thiazol-4-yl]-4,5-dimethoxy-pyridine-2-carboxylic acid], in data set [5], the pIC50 is 5.89.
The same measure, in the same setting: with `COc1cc(C(=O)O)nc(-c2csc(C)n2)c1OC` [Example 2, 6-(2-Methyl-thiazol-4-yl)-4,5-dimethoxy-pyridine-2-carboxylic acid] the figure was 5.72; with `CCCCCCCc1nc(-c2nc(C(=O)O)cc(OC)c2OC)cs1` [Example 3, 6-(2-Heptyl-thiazol-4-yl)-4,5-dimethoxy-pyridine-2-carboxylic acid], 5.89.
For the compound `COc1cc(C(=O)O)nc(-c2csc(N)n2)c1OC` [Example 4, 6-(2-Amino-thiazol-4-yl)-4,5-dimethoxy-pyridine-2-carboxylic acid], in [5], the pIC50 is 5.30 to 6.00.
Take `CNc1nc(-c2nc(C(=O)O)cc(OC)c2OC)cs1` [Example 5, 6-(2-N-Methylamino-thiazol-4-yl)-4,5-dimethoxy-pyridine-2-carboxylic acid]: in [5], the pIC50 is 5.30 to 6.00.
The same measure, in the same setting: with `COc1cc(C(=O)O)nc(-c2cscn2)c1OC` [Example 6, 6-(Thiazol-4-yl)-4,5-dimethoxy-pyridine-2-carboxylic acid] the figure was 5.00 to 5.30.
Consider `COc1cccc(Oc2c(NS(=O)(=O)c3ccc(C(C)(C)C)cc3)ncnc2OCCO)c1` [RO 46-2005], for which, in [6], the “efficacy in acute renal ischemia and subarachnoid hemorrhage” value is “effective in models of acute renal ischemia and subarachnoid hemorrhage in rats”.
Turning to `CC(C)C[C@H](NP(=O)(O)O[C@@H]1O[C@@H](C)[C@H](O)[C@@H](O)[C@H]1O)C(=O)N[C@@H](Cc1c[nH]c2ccccc12)C(=O)O` [phosphoramidon], in data set [7], the “decreased basilar artery caliber and elevated systemic arterial pressure by intracisternal big ET-1” value is listed as “These effects were blocked by phosphoramidon”. Also, the pIC50 in data set [8] is around 6.00. Moreover, the negative logarithm of the IC50 (pIC50) in data set [8] (listed as Phosphoramidon) is 6.00. Besides, the “preischemic increase in coronary perfusion pressure induced by big ET-1 and its preischemic effect” value in data set [1] was “abolished the preischemic increase in coronary perfusion pressure induced by big ET-1 as well as its preischemic effect”. Further, the “pressor response of big ET-1” value in data set [9] is on record as “blocked by phosphoramidon in a dose-dependent manner”. Moreover, the infarct size result in [10] is listed as “significantly reduce infarct size 24 hour postischemia”. For the same compound, the “effects of big ET-1 in the microvasculature” value in data set [11] is reported as “inhibit the effects of big ET-1 in the microvasculature of anesthetized hamsters”. Further, in data set [12], the “lethality induced by intravenous infusion of big ET-1” value is “suppress the lethality induced by the intravenous infusion of big ET-1”. Further, in data set [13] (in all cases (studies cited in b8)), the “inhibition of effects of ET-1 (versus big ET-1)” value was “inhibited the effects of big ET-1 and not ET-1”. In data set [13] (micromolar concentrations, in vitro and in vivo), the “block of the pressor response of big ET” value is “block the pressor response of big ET both in vitro and in vivo”. Also, the “inhibition of hemodynamic actions of big ET-1” value in data set [14] is listed as “phosphoramidon sensitive inhibition of hemodynamic actions of big ET-1 in rat brain”. Moreover, in data set [15], the “plasma ET-1 level” value was “did not have any effect on the plasma ET-1 level” and the “vasoconstrictor effects evoked by intravenous injections of big ET-1” value was “inhibit vasoconstrictor effects evoked by intravenous injections of big ET-1”. Moreover, the “elevated pulmonary vascular resistance after cardiopulmonary bypass” value in [16] is listed as “reduce elevated pulmonary vascular resistance after cardiopulmonary bypass”.
As to “Big ET: 38 (human) or 39 (porcine) amino acid peptide known as big endothelin or proendothelin (CSCSSLMDKECVYFCHLDIIWVNTPEHVVPYGLGSPRS; ends and bridges not checked; cysteine pairing not given here; UniProt P05305 53-90, looked up)”, in [1], the “time to contracture in globally ischemic rat hearts” value is “significantly reduced the time to contracture” and the pIC50 was 8.70. Further, the “potency relative to ET-1 in inducing contractile activity” value in [17] is 1%. The “potency relative to ET-1 at raising blood pressure” value in [18] was “equally potent in vivo at raising blood pressure”.
Take “ET-1: a potent vasoconstrictor, is a 21 amino acid bicyclic peptide”: in data set [1], the “time to contracture in globally ischemic rat hearts” value is on record as “significantly reduced the time to contracture” and the pIC50 was 10.92. In data set [19], the “gastric mucosal hemorrhagic change” value is on record as “induced gastric mucosal hemorrhagic change in a dose-dependent manner”; the “tissue type plasminogen activator release and platelet activating formation” value is “increased the tissue type plasminogen activator release and platelet activating formation”.
